# From the supplement of paper PMC10307832
# Experiments:
# Assay in all cases: relative viability (nuclei count vs DMSO), 5 days (fraction); higher = more cells survive
# [1] = test system: LCLC-97TM1
# How it was run: (§1)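 Cells from lung cancer lines were seeded into 1536-well plates and, one day later, dosed by pin tool. Treatments were either a single drug or a fixed dose of an anchor drug with five library-drug doses (not always all listed) in √10 steps. After 5 days, nuclei were stained in a one-step fixation (final 0.05% Triton X-100, 1% formaldehyde, 1 ug/ml Hoechst) and counted on 4× images, and relative viability is the treated-to-vehicle nuclei ratio, as the median of duplicate plates.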
# [2] = test system: NCI-H596
# How it was run: as §1
# [3] = test system: LXF-289
# How it was run: as §1
# [4] = test system: UMC-11
# How it was run: as §1
# [5] = test system: HCC-15
# How it was run: as §1
# [6] = test system: NCI-H2342
# How it was run: as §1
# [7] = test system: NCI-H322M
# How it was run: as §1
# [8] = test system: LU99A
# How it was run: as §1
# [9] = test system: NCI-H650
# How it was run: as §1
# [10] = test system: NCI-H1651
# How it was run: as §1
# [11] = test system: HCC-78
# How it was run: as §1
# [12] = test system: NCI-H1944
# How it was run: as §1
# [13] = test system: LC-2-ad
# How it was run: as §1
# [14] = test system: ChaGo-K-1
# How it was run: as §1
# [15] = test system: SK-MES-1
# How it was run: as §1
# [16] = test system: PC-3 [JPC-3]
# How it was run: as §1
# [17] = test system: NCI-H1666
# How it was run: as §1
# [18] = test system: LK-2
# How it was run: as §1
# [19] = test system: NCI-H838
# How it was run: as §1
# [20] = test system: NCI-H358
# How it was run: as §1
# [21] = test system: NCI-H2087
# How it was run: as §1
# [22] = test system: NCI-H661
# How it was run: as §1
# [23] = test system: BEN
# How it was run: as §1
compound,measurement,setting,value
NC(=O)Nc1cc(-c2cccc(F)c2)sc1C(=O)N[C@H]1CCCNC1 [AZD7762] + Cc1nc(Nc2ncc(C(=O)Nc3c(C)cccc3Cl)s2)cc(N2CCN(CCO)CC2)n1 [Dasatinib] (partner 0.075 µM),relative viability,[1]; first compound 0.01 µM,0.913
same,relative viability,[1]; first compound 0.03162 µM,0.802
same,relative viability,[1]; first compound 0.1 µM,0.778
same,relative viability,[1]; first compound 0.3162 µM,0.572
same,relative viability,[1]; first compound 1 µM,0.447
same,relative viability,[2]; first compound 0.01 µM,0.66
same,relative viability,[2]; first compound 0.03162 µM,0.632
same,relative viability,[2]; first compound 0.1 µM,0.715
same,relative viability,[2]; first compound 0.3162 µM,0.611
same,relative viability,[2]; first compound 1 µM,0.481
same,relative viability,[3]; first compound 0.01 µM,0.225
same,relative viability,[3]; first compound 0.03162 µM,0.245
same,relative viability,[3]; first compound 0.1 µM,0.219
same,relative viability,[3]; first compound 0.3162 µM,0.187
same,relative viability,[3]; first compound 1 µM,0.211
same,relative viability,[4]; first compound 0.01 µM,0.516
same,relative viability,[4]; first compound 0.03162 µM,0.447
same,relative viability,[4]; first compound 0.1 µM,0.407
same,relative viability,[4]; first compound 0.3162 µM,0.392
same,relative viability,[4]; first compound 1 µM,0.215
same,relative viability,[5]; first compound 0.01 µM,0.582
same,relative viability,[5]; first compound 0.03162 µM,0.592
same,relative viability,[5]; first compound 0.1 µM,0.592
same,relative viability,[5]; first compound 0.3162 µM,0.561
same,relative viability,[5]; first compound 1 µM,0.52
same,relative viability,[6]; first compound 0.01 µM,0.326
same,relative viability,[6]; first compound 0.03162 µM,0.344
same,relative viability,[6]; first compound 0.1 µM,0.33
same,relative viability,[6]; first compound 0.3162 µM,0.309
same,relative viability,[6]; first compound 1 µM,0.31
same,relative viability,[7]; first compound 0.01 µM,0.258
same,relative viability,[7]; first compound 0.03162 µM,0.237
same,relative viability,[7]; first compound 0.1 µM,0.286
same,relative viability,[7]; first compound 0.3162 µM,0.279
same,relative viability,[7]; first compound 1 µM,0.256
same,relative viability,[8]; first compound 0.01 µM,0.551
same,relative viability,[8]; first compound 0.03162 µM,0.573
same,relative viability,[8]; first compound 0.1 µM,0.51
same,relative viability,[8]; first compound 0.3162 µM,0.419
same,relative viability,[8]; first compound 1 µM,0.202
same,relative viability,[9]; first compound 0.01 µM,0.455
same,relative viability,[9]; first compound 0.03162 µM,0.539
same,relative viability,[9]; first compound 0.1 µM,0.475
same,relative viability,[9]; first compound 0.3162 µM,0.505
same,relative viability,[9]; first compound 1 µM,0.412
same,relative viability,[10]; first compound 0.01 µM,0.375
same,relative viability,[10]; first compound 0.03162 µM,0.358
same,relative viability,[10]; first compound 0.1 µM,0.386
same,relative viability,[10]; first compound 0.3162 µM,0.22
same,relative viability,[10]; first compound 1 µM,0.174
same,relative viability,[11]; first compound 0.01 µM,0.409
same,relative viability,[11]; first compound 0.03162 µM,0.606
same,relative viability,[11]; first compound 0.1 µM,0.451
same,relative viability,[11]; first compound 0.3162 µM,0.353
same,relative viability,[11]; first compound 1 µM,0.232
same,relative viability,[12]; first compound 0.01 µM,0.231
same,relative viability,[12]; first compound 0.03162 µM,0.238
same,relative viability,[12]; first compound 0.1 µM,0.252
same,relative viability,[12]; first compound 0.3162 µM,0.256
same,relative viability,[12]; first compound 1 µM,0.232
same,relative viability,[13]; first compound 0.01 µM,0.596
same,relative viability,[13]; first compound 0.03162 µM,0.513
same,relative viability,[13]; first compound 0.1 µM,0.374
same,relative viability,[13]; first compound 0.3162 µM,0.343
same,relative viability,[13]; first compound 1 µM,0.377
same,relative viability,[14]; first compound 0.01 µM,0.572
same,relative viability,[14]; first compound 0.03162 µM,0.575
same,relative viability,[14]; first compound 0.1 µM,0.583
same,relative viability,[14]; first compound 0.3162 µM,0.487
same,relative viability,[14]; first compound 1 µM,0.583
same,relative viability,[15]; first compound 0.01 µM,0.413
same,relative viability,[15]; first compound 0.03162 µM,0.468
same,relative viability,[15]; first compound 0.1 µM,0.302
same,relative viability,[15]; first compound 0.3162 µM,0.131
same,relative viability,[15]; first compound 1 µM,0.117
same,relative viability,[16]; first compound 0.01 µM,1.05
same,relative viability,[16]; first compound 0.03162 µM,0.961
same,relative viability,[16]; first compound 0.1 µM,0.969
same,relative viability,[16]; first compound 0.3162 µM,1.01
same,relative viability,[16]; first compound 1 µM,0.716
same,relative viability,[17]; first compound 0.01 µM,0.909
same,relative viability,[17]; first compound 0.03162 µM,0.88
same,relative viability,[17]; first compound 0.1 µM,0.838
same,relative viability,[17]; first compound 0.3162 µM,0.593
same,relative viability,[17]; first compound 1 µM,0.594
same,relative viability,[18]; first compound 0.01 µM,0.269
same,relative viability,[18]; first compound 0.03162 µM,0.266
same,relative viability,[18]; first compound 0.1 µM,0.283
same,relative viability,[18]; first compound 0.3162 µM,0.27
same,relative viability,[18]; first compound 1 µM,0.298
same,relative viability,[19]; first compound 0.01 µM,0.322
same,relative viability,[19]; first compound 0.03162 µM,0.276
same,relative viability,[19]; first compound 0.1 µM,0.258
same,relative viability,[19]; first compound 0.3162 µM,0.251
same,relative viability,[19]; first compound 1 µM,0.24
same,relative viability,[20]; first compound 0.01 µM,0.151
same,relative viability,[20]; first compound 0.03162 µM,0.182
same,relative viability,[20]; first compound 0.1 µM,0.188
same,relative viability,[20]; first compound 0.3162 µM,0.167
same,relative viability,[20]; first compound 1 µM,0.17
same,relative viability,[21]; first compound 0.01 µM,0.887
same,relative viability,[21]; first compound 0.03162 µM,0.979
same,relative viability,[21]; first compound 0.1 µM,0.919
same,relative viability,[21]; first compound 0.3162 µM,0.773
same,relative viability,[21]; first compound 1 µM,0.517
same,relative viability,[22]; first compound 0.01 µM,0.753
same,relative viability,[22]; first compound 0.03162 µM,0.808
same,relative viability,[22]; first compound 0.1 µM,0.575
same,relative viability,[22]; first compound 0.3162 µM,0.468
same,relative viability,[22]; first compound 1 µM,0.296
same,relative viability,[23]; first compound 0.01 µM,0.253
same,relative viability,[23]; first compound 0.03162 µM,0.297
same,relative viability,[23]; first compound 0.1 µM,0.282
same,relative viability,[23]; first compound 0.3162 µM,0.301
same,relative viability,[23]; first compound 1 µM,0.328
